{"source": "patent US11858934B1", "about": "“Substituted pyrido[4′,3′:5,6]pyrimido[1,2-a]indoles as CK2 inhibitors” (KING FAISAL UNIVERSITY, priority 2023, dated 2024)", "key": {"HL60 (leukemia)": {"test_system": "HL60 (leukemia)", "test": "MTT in vitro cytotoxic activity assay, HL60", "format": "cell-based", "conditions": "Homo sapiens, HL-60; HL60 (leukemia) cells, exposed for 96 hours; read-out: IC50, 50% inhibition of cell proliferation", "protocol": "(§1) Compounds 1-12 were screened for their in vitro cytotoxic activity utilizing a 3-(4,5-dimethyl-thiazol-2-yl)-2,5-diphenyltetrazolium bromide (MTT) assay against selected cancer human cell lines consisting of PC3 (prostate), HCT116 (colon), A375 (melanoma), H1299 (lung), MIAPaCa-2 (pancreas), HL60 (leukemia), MCF7 (breast), MDA-MB-231 (breast) (T. Mosmann, J. Immunol. Meth., 1983, 65, 55-63). The cells were cultured at 37° C. in RMPI1640 medium supplemented with 10% fetal bovine serum, 50 IU/mL penicillin, and 50 μg/mL streptomycin in a 5% CO2 incubator. All cells were sub-cultured 3 times/week by trypsinisation. Viable cells were seeded and allowed to adhere for 12 h before a test drug was added in 96-well plates at an initial density of 1.0×10^5 cells/mL. Tumour cell lines were separately exposed to various concentrations of the tested compounds followed by incubation at a temperature of 37° C. during 96 h inside a medium of fresh RMPI 1640. Cells were subsequently incubated at 37° C. using MTT at 0.5 mg/mL during 4 h. After removal of supernatant, formazan crystals were dissolved in isopropanol and the optical density was measured at 570 nm. CX-4945 was used as a positive control."}, "H1299 (lung)": {"test_system": "H1299 (lung)", "test": "MTT in vitro cytotoxic activity assay, H1299", "format": "cell-based", "conditions": "Homo sapiens, NCI-H1299; H1299 (lung) cells, exposed for 96 hours; read-out: IC50, 50% inhibition of cell proliferation", "protocol": "as §1"}, "PC3 (prostate)": {"test_system": "PC3 (prostate)", "test": "MTT in vitro cytotoxic activity assay, PC3", "format": "cell-based", "conditions": "Homo sapiens, Prostate cell; PC3 (prostate) cells, exposed for 96 hours; read-out: IC50, 50% inhibition of cell proliferation", "protocol": "as §1"}, "A375 (melanoma)": {"test_system": "A375 (melanoma)", "test": "MTT in vitro cytotoxic activity assay, A375", "format": "cell-based", "conditions": "Homo sapiens, A-375; A375 (melanoma) cells, exposed for 96 hours; read-out: IC50, 50% inhibition of cell proliferation", "protocol": "as §1"}, "MDA-MB-231 (breast)": {"test_system": "MDA-MB-231 (breast)", "test": "MTT in vitro cytotoxic activity assay, MDA-MB-231", "format": "cell-based", "conditions": "Homo sapiens; MDA-MB-231 (breast) cells, exposed for 96 hours; read-out: IC50, 50% inhibition of cell proliferation", "protocol": "as §1"}, "MIAPaCa-2 (pancreas)": {"test_system": "MIAPaCa-2 (pancreas)", "test": "MTT in vitro cytotoxic activity assay, MIAPaCa-2", "format": "cell-based", "conditions": "Homo sapiens, MIA PaCa-2; MIAPaCa-2 (pancreas) cells, exposed for 96 hours; read-out: IC50, 50% inhibition of cell proliferation", "protocol": "as §1"}, "HCT116 (colon)": {"test_system": "HCT116 (colon)", "test": "MTT in vitro cytotoxic activity assay, HCT116", "format": "cell-based", "conditions": "Homo sapiens, HCT-116; HCT116 (colon) cells, exposed for 96 hours; read-out: IC50, 50% inhibition of cell proliferation", "protocol": "as §1"}, "recombinant human CK2": {"target": "T1, recombinant human CK2 (Homo sapiens, UniProt P68400)", "T1 construct": "purchased Millipore", "T1 sequence (P68400 whole entry)": "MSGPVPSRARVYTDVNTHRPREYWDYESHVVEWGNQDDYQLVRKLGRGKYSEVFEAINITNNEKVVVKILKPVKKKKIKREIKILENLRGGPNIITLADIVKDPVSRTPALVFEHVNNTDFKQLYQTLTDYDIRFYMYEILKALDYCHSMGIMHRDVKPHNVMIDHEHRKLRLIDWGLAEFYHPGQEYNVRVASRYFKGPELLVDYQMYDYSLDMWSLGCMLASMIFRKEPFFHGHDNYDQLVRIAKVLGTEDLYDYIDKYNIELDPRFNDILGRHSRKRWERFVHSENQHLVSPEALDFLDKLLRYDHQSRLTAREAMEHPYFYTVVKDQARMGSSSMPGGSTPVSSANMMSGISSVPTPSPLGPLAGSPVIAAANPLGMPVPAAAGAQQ", "T1 sequence (P67870 whole entry partner)": "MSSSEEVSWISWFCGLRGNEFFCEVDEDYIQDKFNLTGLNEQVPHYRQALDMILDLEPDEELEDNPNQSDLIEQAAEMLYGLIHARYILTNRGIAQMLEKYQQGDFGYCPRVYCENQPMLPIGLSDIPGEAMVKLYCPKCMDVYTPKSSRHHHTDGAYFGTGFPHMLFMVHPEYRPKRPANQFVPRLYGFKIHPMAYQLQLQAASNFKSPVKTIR", "test": "CK2 kinase assay (33P-ATP, substrate peptide RRRDDDSDDD)", "format": "biochemical", "conditions": "final ATP concentration 15 μM, 10 min at 30° C; read-out: IC50, protein kinase CK2 activity", "protocol": "CK2 Kinase Assay was conducted using the protocol as described in Pierre F. et al; J. Med. Chem. 2011, 54, 635-654. The tested compounds in aqueous solution were added at a volume of 10 μL to a reaction mixture comprising 10 μL of assay dilution buffer (ADB; 20 mM MOPS, pH 7.2, 25 mM (β-glycerol phosphate, 5 mM EGTA, 1 mM sodium orthovanadate, and 1 mM dithiothreitol), 10 μL of substrate peptide (RRRDDDSDDD, dissolved in ADB at a concentration of 1 mM), 10 μL of recombinant human CK2 (RRfββ-holoenzyme, 25 ng dissolved in ADB; Millipore). Reactions were initiated by the addition of 10 μL of ATP solution (90% 75 mMMgCl2, 75 μM ATP (final ATP concentration: 15 μM) dissolved in ADB; 10% [γ-33P] ATP (stock 1 mCi/100 μL; 3000 Ci/mmol (Perkin-Elmer) and maintained for 10 min at 30° C. The reactions were quenched with 100 μL of 0.75% phosphoric acid and then transferred to and filtered through a phosphor cellulose filter plate (Millipore). After washing each well five times with 0.75% phosphoric acid, the plate was dried under vacuum for 5 min and, following the addition of 15 μL of scintillation fluid to each well, the residual radioactivity was measured using a Wallac luminescence counter. The IC50 values were derived from eight concentrations of test inhibitors."}, "MCF7 (breast)": {"test_system": "MCF7 (breast)", "test": "MTT in vitro cytotoxic activity assay, MCF7", "format": "cell-based", "conditions": "Homo sapiens; MCF7 (breast) cells, exposed for 96 hours; read-out: IC50, 50% inhibition of cell proliferation", "protocol": "as §1"}}, "data": [{"smiles": "O=C(O)c1ccc2c(c1)cc1nc(Nc3cccc(Cl)c3)c3ccncc3n12", "note": "[Compound 1, 5-((3-chlorophenyl)amino)pyrido[4′,3′:5,6]pyrimido[1,2-a]indole-9-carboxylic acid]", "values": [{"measurement": "IC50", "setting": "HL60 (leukemia)", "value": 3300, "unit": "nM"}, {"measurement": "IC50", "setting": "H1299 (lung)", "value": 1900, "unit": "nM"}, {"measurement": "IC50", "setting": "PC3 (prostate)", "value": 2200, "unit": "nM"}, {"measurement": "IC50", "setting": "A375 (melanoma)", "value": 3500, "unit": "nM"}, {"measurement": "IC50", "setting": "MDA-MB-231 (breast)", "value": 5500, "unit": "nM"}, {"measurement": "IC50", "setting": "MIAPaCa-2 (pancreas)", "value": 1400, "unit": "nM"}, {"measurement": "IC50", "setting": "HCT116 (colon)", "value": 1800, "unit": "nM"}, {"measurement": "IC50", "setting": "recombinant human CK2", "value": 15, "unit": "nM"}, {"measurement": "IC50", "setting": "MCF7 (breast)", "value": 6900, "unit": "nM"}]}]}
